Experimental data as given in patent EP2257297B1, “COMPOUNDS FOR USE IN THE TREATMENT OF ACNE, SEBORRHOEA AND SEBHORROEIC DERMATITIS, OR FOR REDUCING SEBUM SECRETION” (priority 2008, dated 2009).

target: T1, human MC5R (Homo sapiens, UniProt P33032); assay: Human MC5R radioligand binding assay ([125I] NDP-MSH displacement, hMC5R membranes); conditions: hMC5R assay as in Example 102; compounds tested as trifluoroacetate or hydrochloride salts, or as free base
T1 construct: purchased Perkin Elmer RBXMC5M400UA
T1 sequence (P33032 whole entry): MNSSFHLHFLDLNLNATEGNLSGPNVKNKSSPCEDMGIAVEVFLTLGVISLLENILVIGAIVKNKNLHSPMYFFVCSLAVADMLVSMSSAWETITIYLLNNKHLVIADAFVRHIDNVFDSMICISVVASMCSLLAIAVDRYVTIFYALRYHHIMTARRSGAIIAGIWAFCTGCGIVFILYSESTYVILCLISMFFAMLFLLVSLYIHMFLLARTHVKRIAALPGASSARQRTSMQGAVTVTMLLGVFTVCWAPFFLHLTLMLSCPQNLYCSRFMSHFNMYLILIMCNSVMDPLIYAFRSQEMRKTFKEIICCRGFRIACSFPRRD
Outline: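 Bound ligand collected by filtration on PEI-soaked GF/A filters and counted. Data fitted to a single-site competition model with fixed Hill coefficient to give EC50.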

| Structure (SMILES) | IC50 |
| --- | --- |
| N=C(N)NCCC[C@@H]1N[C@H](CNC(=O)/C=C/c2ccc(O)cc2)CCN(CC(c2ccccc2)c2ccccc2)C1=O [Compound 169, (E)-N-(((3S,5S)-1-(2,2-diphenylethyl)-3-(3-guanidinopropyl)-2-oxo-1,4-diazepan-5-yl)methyl)-3-(4-hydroxyphenyl)acrylamide] | < 1000 nM |
| NCC[C@@H]1N[C@H](CNC(=O)/C=C/c2ccc(F)cc2)CCN(CC(c2ccccc2)c2ccccc2)C1=O [Compound 276, (E)-N-(((3S,5S)-3-(2-aminoethyl)-1-(2,2-diphenylethyl)-2-oxo-1,4-diazepan-5-yl)methyl)-3-(4-fluorophenyl)acrylamide] | < 100 nM |
| CCC(CC)CN1CC[C@@H](CNC(=O)c2ccc(Cl)c(Cl)c2)N[C@@H](CCN2CCCCC2)C1=O [Compound 349, 3,4-dichloro-N-(((3S,5S)-1-(2-ethylbutyl)-2-oxo-3-(2-(piperidin-1-yl)ethyl)-1,4-diazepan-5-yl)methyl)benzamide] | < 100 nM |
| N=C(N)NCCC[C@@H]1N[C@H](CNC(=O)/C=C/c2ccc(Br)cc2)CCN(CC(c2ccccc2)c2ccccc2)C1=O [Compound 210, (E)-3-(4-bromophenyl)-N-(((3S,5S)-1-(2,2-diphenylethyl)-3-(3-guanidinopropyl)-2-oxo-1,4-diazepan-5-yl)methyl)acrylamide] | < 10 nM |
| NCC[C@@H]1N[C@H](CNC(=O)/C=C/c2ccc(Cl)cc2)CCN(Cc2cc(Cl)cc(Cl)c2)C1=O [Compound 326, (E)-N-(((3S,5S)-3-(2-aminoethyl)-1-(3,5-dichlorobenzyl)-2-oxo-1,4-diazepan-5-yl)methyl)-3-(4-chlorophenyl)acrylamide] | < 100 nM |
| Cc1ccc(/C=C/C(=O)NC[C@@H]2CCN(CC(c3ccccc3)c3ccccc3)C(=O)[C@H](CCN)N2)cc1 [Compound 277, (E)-N-(((3S,5S)-3-(2-aminoethyl)-1-(2,2-diphenylethyl)-2-oxo-1,4-diazepan-5-yl)methyl)-3-p-tolylacrylamide] | < 100 nM |
| CN1[C@H](CNC(=O)/C=C/c2ccc(F)cc2)CCN(CC(c2ccccc2)c2ccccc2)C(=O)[C@@H]1CCCN [Compound 258, (E)-N-(((3S,5S)-3-(3-aminopropyl)-1-(2,2-diphenylethyl)-4-methyl-2-oxo-1,4-diazepan-5-yl)methyl)-3-(4-fluorophenyl)acrylamide] | < 1000 nM |
| N=C(N)NCCC[C@@H]1N[C@H](CNC(=O)/C=C/c2cccc(Cl)c2)CCN(CC(c2ccccc2)c2ccccc2)C1=O [Compound 177, (E)-3-(3-chlorophenyl)-N-(((3S,5S)-1-(2,2-diphenylethyl)-3-(3-guanidinopropyl)-2-oxo-1,4-diazepan-5-yl)methyl)acrylamide] | < 100 nM |
| O=C(NC[C@@H]1CCN(CC(c2ccccc2)c2ccccc2)C(=O)[C@H](CCCNC2CCCCC2)N1)c1ccc2ccccc2c1 [Compound 226, N-(((3S,5S)-3-(3-(cyclohexylamino)propyl)-1-(2,2-diphenylethyl)-2-oxo-1,4-diazepan-5-yl)methyl)-2-naphthamide] | < 100 nM |
| N=C(N)NCCC[C@@H]1N[C@H](CNC(=O)/C=C/c2ccc(Cl)cc2Cl)CCN(CC(c2ccccc2)c2ccccc2)C1=O [Compound 160, (E)-3-(2,4-dichlorophenyl)-N-(((3S,5S)-1-(2,2-diphenylethyl)-3-(3-guanidino-propyl)-2-oxo-1,4-diazepan-5-yl)methyl)acrylamide] | < 100 nM |
| O=C(/C=C/c1ccc(Cl)cc1)NC[C@@H]1CCN(CC(c2ccccc2)c2ccccc2)C(=O)[C@H](Cc2ccccc2)N1 [Compound 324, (E)-N-(((3S,5S)-3-benzyl-1-(2,2-diphenylethyl)-2-oxo-1,4-diazepan-5-yl)methyl)-3-(4-chlorophenyl)acrylamide] | < 1000 nM |
| N=C(N)NCCC[C@@H]1N[C@H](CNC(=O)C2Cc3ccccc3C2)CCN(CC(c2ccccc2)c2ccccc2)C1=O [Compound 133, N-(((3S,5S)-1-(2,2-diphenylethyl)-3-(3-guanidinopropyl)-2-oxo-1,4-diazepan-5-yl)methyl)-2,3-dihydro-1H-indene-2-carboxamide] | < 10000 nM |
| N=C(N)NCCC[C@@H]1N[C@H](CNC(=O)c2cc(Cl)ccc2Cl)CCN(CC(c2ccccc2)c2ccccc2)C1=O [Compound 137, 2,5-dichloro-N-(((3S,5S)-1-(2,2-diphenylethyl)-3-(3-guanidinopropyl)-2-oxo-1,4-diazepan-5-yl)methyl)benzamide] | < 1000 nM |
| NCCC[C@@H]1N[C@H](CNC(=O)/C=C/c2ccc(F)cc2)CCN(CC(c2ccccc2)c2ccccc2)C1=O [Compound 220, (E)-N-(((3S,5S)-3-(3-aminopropyl)-1-(2,2-diphenylethyl)-2-oxo-1,4-diazepan-5-yl)methyl)-3-(4-fluorophenyl)acrylamide] | < 100 nM |
| N=C(N)NCCC[C@@H]1N[C@H](CNC(=O)/C=C/c2cccs2)CCN(CC(c2ccccc2)c2ccccc2)C1=O [Compound 167, (E)-N-(((3S,5S)-1-(2,2-diphenylethyl)-3-(3-guanidinopropyl)-2-oxo-1,4-diazepan-5-yl)methyl)-3-(thiophen-2-yl)acrylamide] | < 100 nM |
| N=C(N)NCCC[C@@H]1N[C@H](CNC(=O)c2ccc3ccccc3n2)CCN(CC(c2ccccc2)c2ccccc2)C1=O [Compound 116, N-(((3S,5S)-1-(2,2-diphenylethyl)-3-(3-guanidinopropyl)-2-oxo-1,4-diazepan-5-yl)methyl)quinoline-2-carboxamide] | < 1000 nM |
| Cc1ccc(C(=O)NC[C@@H]2CCN(CC(c3ccccc3)c3ccccc3)C(=O)[C@H](CCCNC(=N)N)N2)cc1C [Compound 144, N-(((3S,5S)-1-(2,2-diphenylethyl)-3-(3-guanidinopropyl)-2-oxo-1,4-diazepan-5-yl)methyl)-3,4-dimethylbenzamide] | < 100 nM |
| CN(C[C@@H]1CCN(CC(c2ccccc2)c2ccccc2)C(=O)[C@H](CCCN)N1)C(=O)c1ccc2cc(Br)ccc2c1 [Compound 60, N-(((3S,5S)-3-(3-aminopropyl)-1-(2,2-diphenylethyl)-2-oxo-1,4-diazepan-5-yl)methyl)-6-bromo-N-methyl-2-naphthamide] | < 10000 nM |
| N=C(N)NCCC[C@@H]1N[C@H](CNC(=O)c2ccc3ncsc3c2)CCN(CC(c2ccccc2)c2ccccc2)C1=O [Compound 178, N-(((3S,5S)-1-(2,2-diphenylethyl)-3-(3-guanidinopropyl)-2-oxo-1,4-diazepan-5-yl)methyl)benzo[d]thiazole-6-carboxamide] | < 1000 nM |
| O=C(NCC[C@@H]1CCN(CC(c2ccccc2)c2ccccc2)C(=O)[C@H](CCN2CCCCC2)N1)c1ccccc1 [Compound 311, N-(2-((3S,5R)-1-(2,2-diphenylethyl)-2-oxo-3-(2-(piperidin-1-yl)ethyl)-1,4-diazepan-5-yl)ethyl)benzamide] | < 10000 nM |
| NCCCC[C@@H]1N[C@H](CNC(=O)c2ccc3ccccc3c2)CCN(Cc2cccc3ccccc23)C1=O [Compound 117, N-(((3S,5S)-3-(4-aminobutyl)-1-(naphthalen-1-ylmethyl)-2-oxo-1,4-diazepan-5-yl)methyl)-2-naphthamide] | < 1000 nM |
| CC1=NN(c2ccc(C(=O)NC[C@@H]3CCN(CC(c4ccccc4)c4ccccc4)C(=O)[C@H](CCCN)N3)cc2)C(=O)C1 [Compound 259, N-(((3S,5S)-3-(3-aminopropyl)-1-(2,2-diphenylethyl)-2-oxo-1,4-diazepan-5-yl)methyl)-4-(3-methyl-5-oxo-4,5-dihydro-1H-pyrazol-1-yl)benzamide] | < 1000 nM |
| CCC(CC)CN1CC[C@@H](CNC(=O)c2ccc(Cl)c(F)c2)N[C@@H](CCN)C1=O [Compound 351, N-(((3S,5S)-3-(2-aminoethyl)-1-(2-ethylbutyl)-2-oxo-1,4-diazepan-5-yl)methyl)-4-chloro-3-fluorobenzamide] | < 10000 nM |
| N=C(N)NCCC[C@@H]1N[C@H](CNC(=O)c2cc3ccccc3[nH]2)CCN(CC(c2ccccc2)c2ccccc2)C1=O [Compound 142, N-(((3S,5S)-1-(2,2-diphenylethyl)-3-(3-guanidinopropyl)-2-oxo-1,4-diazepan-5-yl)methyl)-1H-indole-2-carboxamide] | < 100 nM |
| N=C(N)NCCC[C@@H]1N[C@H](CNC(=O)/C=C/c2c(F)cccc2F)CCN(CC(c2ccccc2)c2ccccc2)C1=O [Compound 208, (E)-3-(2,6-difluorophenyl)-N-(((3S,5S)-1-(2,2-diphenylethyl)-3-(3-guanidinopropyl)-2-oxo-1,4-diazepan-5-yl)methyl)acrylamide] | < 100 nM |
| NC[C@@H]1N[C@H](CNC(=O)c2ccc3ccccc3c2)CCN(Cc2cc(Cl)cc(Cl)c2)C1=O [Compound 365, N-(((3S,5S)-3-(aminomethyl)-1-(3,5-dichlorobenzyl)-2-oxo-1,4-diazepan-5-yl)methyl)-2-naphthamide] | < 1000 nM |
| CCN(CC)CC[C@@H]1N[C@H](CNC(=O)c2ccc3cc(F)ccc3c2)CCN(CC(c2ccccc2)c2ccccc2)C1=O [Compound 25, N-(((3S,5S)-3-(2-(diethylamino)ethyl)-1-(2,2-diphenylethyl)-2-oxo-1,4-diazepan-5-yl)methyl)-6-fluoro-2-naphthamide] | < 100 nM |
| N=C(N)NCCC[C@@H]1N[C@H](CNC(=O)c2ccc(-c3ccccc3)o2)CCN(CC(c2ccccc2)c2ccccc2)C1=O [Compound 179, N-(((3S,5S)-1-(2,2-diphenylethyl)-3-(3-guanidinopropyl)-2-oxo-1,4-diazepan-5-yl)methyl)-5-phenylfuran-2-carboxamide] | < 1000 nM |
| O=C(NC[C@@H]1CCN(Cc2cc(Cl)cc(Cl)c2)C(=O)[C@H](CN2CCCCC2)N1)c1ccc(Cl)c(Cl)c1 [Compound 367, 3,4-dichloro-N-(((3S,5S)-1-(3,5-dichlorobenzyl)-2-oxo-3-(piperidin-1-ylmethyl)-1,4-diazepan-5-yl)methyl)benzamide] | < 1000 nM |

same assay, conditions: hMC5R binding assay as in Example 102; compounds tested as trifluoroacetate or hydrochloride salts, or as free base

| Structure (SMILES) | IC50 |
| --- | --- |
| CC[C@@H](CN1CC[C@H](CNC(=O)c2ccc3cc(Cl)ccc3c2)N[C@@H](CCN2CCCCC2)C1=O)c1ccccc1 [Compound 583, 6-chloro-N-(((3S,5R)-2-oxo-1-((R)-2-phenylbutyl)-3-(2-(piperidin-1-yl)ethyl)-1,4-diazepan-5-yl)methyl)-2-naphthamide] | < 1000 nM |
